IC50 data for 15 compounds are collected here from PubChem BioAssay AID651975 (The Scripps Research Institute Molecular Screening Center, 2013).

Activity calls are given as the source filed them. No rule for the calls is given here.

In this assay the test system is StAR promoter luciferase reporter cells, luminescence inhibition. As to the kind of experiment: StAR promoter reporter inhibition counter-screen, late-stage follow-up, counter-screen for LRH-1 inverse agonist project, cell-based, luminescence, dose response (AID 651975).
Usually IC50 stands for the concentration needed to halve the response being measured. For the compound `N#CCSc1ccccc1NC(=O)CN1C(=O)C2CC=CCC2C1=O` (stereo not given), the IC50 is > 35.9 µM (inactive).
Then `NC(=O)C1CCN(C(=O)COc2ccc3c4c(c(=O)oc3c2)CCCC4)CC1`, with > 35.9 µM (inactive); and `O=c1[nH]c(Nc2ccc3c(c2)OCCO3)nnc1Cc1ccccc1`, with > 35.9 µM (inactive).
As for `COc1ccc(CCNC(=O)CSc2nc3[nH]c(=O)cc(O)c3s2)cc1`, the IC50 was > 35.9 µM (inactive).
In the case of `COCC(=O)NC1CCN(CC(=O)Nc2ccc(OC)cc2[N+](=O)[O-])CC1`, the IC50 is > 35.9 µM (inactive).
As for `CCCc1nnc(SCC(=O)Nc2ccc(C(=O)OCC)cc2)o1`, the IC50 is > 35.9 µM (inactive).
In the case of `Cc1ccc2cccc(OCC(=O)NCCC3=CCCCC3)c2n1`, the IC50 is > 35.9 µM (inactive).
On to `COc1ccc(NC(=O)CSc2ccc3c(c2)OCCO3)cc1`, for which the IC50 was > 35.9 µM (inactive).
For the compound `Cc1cccc(NC(=O)COC(=O)Cc2cccs2)c1C`, the IC50 is > 35.9 µM (inactive).
As for `CCOc1ccc(NC(=O)CSc2nccn(-c3ccc4c(c3)OCCO4)c2=O)cc1`, the IC50 was > 35.9 µM (inactive).
On to `COc1ccc(NS(=O)(=O)c2ccc(OCC(=O)N3CCN(C)CC3)cc2)cc1Cl`, for which the IC50 was > 35.9 µM (inactive).
Take `O=C1CCCN2N=C(SCC(=O)Nc3ccc(Br)cc3)SC2=N1`: the IC50 was > 35.9 µM (inactive).
Take `CC(=O)Nc1ccc(N=c2cc([N+](=O)[O-])cc(Cl)n2O)cc1`: the IC50 is > 35.9 µM (inactive).
Regarding `CC(=O)Nc1ccc(NC(=O)CSc2ccc(-c3ccco3)nn2)cc1`, the IC50 is > 35.9 µM (inactive).
Take `O=C(CSc1nnc(CNC(=O)c2c(F)cccc2F)o1)Nc1ccc2c(c1)OCCO2`: the IC50 is > 35.9 µM (inactive).
